Experimental data from the supplement of paper PMC8967900.

Key:
Assay in all cases: selective drug sensitivity score (sDSS, relative to normal bone marrow) (sDSS (score)); higher = more potent and effective on the cell line relative to normal bone marrow cells
Details in all cases: 72 h
[1] = test system: JURKAT
[2] = test system: ALL-PO
[3] = test system: NALM-6
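Note: ALL cell lines in 384-well plates, five doses spanning 10,000-fold, each plate scaled between vehicle and 100 µmol/L benzalkonium chloride controls, sDSS an adapted area-under-curve metric.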

SMILES	selective drug sensitivity score [1]	selective drug sensitivity score [2]	selective drug sensitivity score [3]
Cc1cnc(-c2ccccc2C(C)C)nc1NCc1ccc(-n2ccnn2)cc1 [ML323] (top concentration 10000 nM)	4.14	3.14	1.84
O=C(CCNC(=O)c1ccc(OC(F)(F)F)cc1)N[C@@H]1CCCc2ccccc21 [ML390] (top concentration 50000 nM)	14.8	5.3	10.8
CN(C)C(=N)NC(=N)N [Metformin] (top concentration 100000 nM)	-0.02	-0.02	-0.02
C[C@H]1C[C@@H]2[C@H]([C@@H](O)C[C@@]3(C)[C@H]2CC[C@]3(O)C(=O)CO)[C@@]2(C)C=CC(=O)C=C12 [Methylprednisolone] (top concentration 10000 nM)	-2	34.1	22.4
FC(F)(F)c1ccc(/C=C/c2nc(COc3ccc(CCCCn4ccnn4)cc3)co2)cc1 [Mubritinib] (top concentration 1000 nM)	24	6.16	12.1
COc1cc2c(cc1OC(C)C)[C@H](c1ccc(Cl)cc1)N(c1ccc(N(C)C[C@H]3CC[C@H](N4CCN(C)C(=O)C4)CC3)cc1)C(=O)C2 [NVP-CGM097] (top concentration 25000 nM)	-4.44	-3.84	5.66
CCOc1cc2ncc(C#N)c(Nc3ccc(OCc4ccccn4)c(Cl)c3)c2cc1NC(=O)/C=C/CN(C)C [Neratinib] (top concentration 1000 nM)	1.48	5.28	0.48
COc1ncc(-c2ccc3nccc(-c4ccnnc4)c3c2)cc1NS(=O)(=O)c1ccc(F)cc1F [Omipalisib] (top concentration 1000 nM)	4.2	21.9	17.2
CN1CCN(c2cc(C(=O)Nc3ccc4c(c3)-c3c(c(C(N)=O)nn3-c3ccc(F)cc3)CC4)c(Cl)cn2)CC1 [PHA-408] (top concentration 10000 nM)	0.18	0.78	0.78
OC[C@H]1O[C@@H](n2cnc3c2N=CNC[C@H]3O)C[C@@H]1O [Pentostatin] (top concentration 10000 nM)	-0.44	-0.44	-0.44
CC(C)N(C[C@H]1O[C@@H](n2cnc3c(N)ncnc32)[C@H](O)[C@@H]1O)[C@H]1C[C@@H](CCc2nc3cc(C(C)(C)C)ccc3[nH]2)C1 [Pinometostat] (top concentration 1000 nM)	0	0	0
Cc1ccc(=O)n(-c2ccccc2)c1 [Pirfenidone] (top concentration 10000 nM)	0	0	0
NCCNc1ccc(NCCN)c2c1C(=O)c1ccncc1C2=O [Pixantrone] (top concentration 10000 nM)	-2.76	-2.76	-2.76
c1cc(CN2CCCNCCNCCCNCC2)ccc1CN1CCCNCCNCCCNCC1 [Plerixafor] (top concentration 10000 nM)	0	0	0.3
O=C(c1ccc(OCCN2CCCCC2)cc1)c1c(-c2ccc(O)cc2)sc2cc(O)ccc12 [Raloxifene] (top concentration 10000 nM)	-0.58	-0.38	-0.88
CN(C)C(=O)c1cc2cnc(Nc3ccc(N4CCNCC4)cn3)nc2n1C1CCCC1 [Ribociclib] (top concentration 10000 nM)	0.48	0.98	1.18
CN1CCN(CCOc2cc(OC3CCOCC3)c3c(Nc4c(Cl)ccc5c4OCO5)ncnc3c2)CC1 [Saracatinib] (top concentration 10000 nM)	-0.62	-0.02	-1.22

SMILES	selective drug sensitivity score [1]	selective drug sensitivity score [2]	selective drug sensitivity score [3]
C=CC(=O)Nc1cccc(Nc2nc(Nc3ccc(OCCOC)cc3)ncc2F)c1 [Spebrutinib] (top concentration 1000 nM)	0.74	4.14	2.04
C[C@@H]1CN(Cc2ccc(F)cc2)[C@@H](C)CN1C(=O)c1cc2c(C(=O)C(=O)N(C)C)cn(C)c2cc1Cl [Talmapimod] (top concentration 10000 nM)	0.9	3.2	0
C[C@@H](C(=O)O)c1ccc(-c2ccccc2)c(F)c1 [Tarenflurbil] (top concentration 10000 nM)	-0.16	-0.16	3.44
CNC(=O)c1cc(COc2nnc(Nc3ccc(Cl)cc3)c3ccoc23)ccn1 [Telatinib] (top concentration 10000 nM)	0	0	0
O=c1sn(-c2cccc3ccccc23)c(=O)n1Cc1ccccc1 [Tideglusib] (top concentration 3000 nM)	-0.3	-0.3	-0.3
COc1cc2nccc(Oc3ccc(NC(=O)Nc4cc(C)on4)c(Cl)c3)c2cc1OC [Tivozanib] (top concentration 10000 nM)	0.96	1.76	2.36
Cc1cc(Nc2cc(N3CCN(C)CC3)nc(Sc3ccc(NC(=O)C4CC4)cc3)n2)n[nH]1 [Tozasertib] (top concentration 10000 nM)	1.76	17.3	16.2
CC1=C(/C=C/C(C)=C/C=C/C(C)=C/C(=O)O)C(C)(C)CCC1 [Tretinoin] (top concentration 10000 nM)	-2.4	-2.3	-2.4
COC(=O)c1ccc2c(c1)[nH]c1ncnc(NCCCN3CCCCC3)c12 [UM729] (top concentration 10000 nM)	-0.06	2.54	0.34
COc1cc2c(NC3CCN(C(C)C)CC3)nc(N3CCC(F)(F)CC3)nc2cc1OCCCN1CCCC1 [UNC0642] (top concentration 10000 nM)	-3.64	2.96	-2.24
O=C(c1ccc(C(=O)N2CCC(N3CCCC3)CC2)c(Nc2ccccc2)c1)N1CCC(N2CCCC2)CC1 [UNC1215] (top concentration 10000 nM)	0	0	0
CCCC(CCC)C(=O)O [Valproic_acid] (top concentration 1000000 nM)	0	0	0
Clc1ccc(Nc2nnc(Cc3ccncc3)c3ccccc23)cc1 [Vatalanib] (top concentration 10000 nM)	0	0	0
CCCS(=O)(=O)Nc1ccc(F)c(C(=O)c2c[nH]c3ncc(-c4ccc(Cl)cc4)cc23)c1F [Vemurafenib] (top concentration 10000 nM)	2.26	2.46	-1.14
CC[C@]1(O)C[C@H]2CN(CCc3c([nH]c4ccccc34)[C@@](C(=O)OC)(c3cc4c(cc3OC)N(C)[C@H]3[C@@](O)(C(=O)OC)[C@H](OC(C)=O)[C@]5(CC)C=CCN6CC[C@]43[C@@H]65)C2)C1 [Vinblastine] (top concentration 1000 nM)	0.5	7.2	6.3
CC[C@]1(O)C[C@H]2CN(CCc3c([nH]c4ccccc34)[C@@](C(=O)OC)(c3cc4c(cc3OC)N(C=O)[C@H]3[C@@](O)(C(=O)OC)[C@H](OC(C)=O)[C@]5(CC)C=CCN6CC[C@]43[C@@H]65)C2)C1 [Vincristine] (top concentration 1000 nM)	4.52	8.32	10.7
FC(F)c1nc2ccccc2n1-c1nc(N2CCOCC2)nc(N2CCOCC2)n1 [ZSTK474] (top concentration 10000 nM)	1.76	10.5	11.9
